These results are taken from patent publication US6008372A, “Substituted dinaphthylmethyl and diheteroarylmethylacetyl histidine inhibitors of protein farnesyltransferase” (Warner-Lambert Company, priority 1998, dated 1999).

Structures can show the parent of a compound that is named as a salt. Where two headings read alike, the source gives them in different places.

Experiment [1] deals with Ras farnesylation in H-ras-NIH3T3 cells. Nature of the experiment: Gel shift assay: inhibition of Ras farnesylation in H-ras-NIH3T3 cells. It counts as cell-based. Particulars: 18-hour incubation, read-out: Inhibition of Ras Farnesylation (Minimum Effective Dose). As for the experimental part: (§1) Twenty-four hours after planting 2×10^6 ras-transformed cells per treatment condition, the farnesylation inhibitor is added at varying concentrations. Following an 18-hour incubation period, cells are lysed in phosphate-buffered saline containing 1% Triton X-100, 0.5% sodium deoxycholate, and 0.1% SDS, pH 7.4 in the presence of several protease inhibitors (PMSF, antipain, leupeptin, pepstatin A, and aprotinin all at 1 μg/mL). Ras protein is immunoprecipitated from the supernatants by the addition of 3 μg v-H-ras Ab-2 (Y13-259 antibody from Oncogene Science). After overnight immunoprecipitation, 30 μL of a 50% protein G-Sepharose slurry (Pharmacia) is added followed by 45-minute incubation. Pellets are resuspended in 2× tris-glycine loading buffer (Novex) containing 5% B-mercaptoethanol and then denatured by 5 minutes boiling prior to electrophoresis on 14% Tris-glycine SDS gels. Using Western transfer techniques, proteins are transferred to nitrocellulose membranes followed by blocking in blocking buffer. Upon overnight incubation with primary antibody (pan-ras Ab-2 from Oncogene Science), an antimouse HRP conjugate secondary antibody (Amersham) is employed for detection of the ras protein. Blots are developed using ECL techniques (Amersham).
(§2) The data in Table 1 show farnesyl protein transferase inhibitory activity, and activity in the gel shift assay against ras protein of selected compounds of Formula I.

Experiment [2] relates to Ras farnesylation in H-ras Me 12/+ cells. Nature of the experiment: Gel shift assay: inhibition of Ras farnesylation in H-ras Me 12/+ cells. It counts as cell-based. Particulars: 18-hour incubation, read-out: Inhibition of Ras Farnesylation (Minimum Effective Dose). As for the experimental part: as §1, §2
For experiment [3], the target named is T1, rat brain farnesyl protein transferase (Rattus norvegicus, UniProt Q02293+Q04631).
T1 construct: 40-fold purified rat brain farnesyl protein transferase; from tissue; host or cells: rat brain
Nature of the experiment: Protein:farnesyltransferase (PFT/FPT) inhibitory activity assay. The experiment is classed as biochemical.

Experiment [4] concerns human lung carcinoma with a k-ras mutation. Particulars: nude mice; cited from earlier work.
[5] abbreviates: Hepes (without 5 mM phosphate), read-out: Farnesyl Protein Transferase Inhibition, Hepes, IC50.
The mark [6] stands for this setting: Hepes/5 mM PO4^-3, pH 7.4, read-out: Farnesyl Protein Transferase Inhibition, Hepes/5 mM PO4^-3, IC50.

For `COC(=O)[C@H](Cc1c[nH]cn1)NC(=O)C(Cc1cccc2ccccc12)Cc1cccc2ccccc12` [Example 1, (S)-3-(1H-Imidazol-4-yl)-2-(3-naphthalen-1-yl-2-naphthalen-1-ylmethyl-propionylamino)-propionic acid, methyl ester], the minimal effective concentration in experiment [1] was found to be 5 µM; in experiment [2], 2.5 µM. Moreover, the figures for the IC50 in experiment [3] (setting [5]) and in experiment [3] (setting [6]) were 0.26 µM and 0.3 µM, respectively.

On to `CCOC(=O)[C@H](Cc1c[nH]cn1)NC(=O)C(Cc1cccc2ccccc12)Cc1cccc2ccccc12` [Example 5, (S)-3-(1H-Imidazol-4-yl)-2-(3-naphthalen-1-yl-2-naphthalen-1-ylmethyl-propionylamino)-propionic acid, ethyl ester], for which the minimal effective concentration in experiment [2] is 2.5 µM. The IC50 in experiment [3] (setting [5]) and in experiment [3] (setting [6]) was 0.13 µM throughout.

As to `COC(=O)[C@H](Cc1cncn1C)NC(=O)C(Cc1cccc2ccccc12)Cc1cccc2ccccc12` [Example 6, (S)-3-(3-Methyl-3H-imidazol-4-yl)-2-(3-naphthalen-1-yl-2-naphthalen-1-ylmethyl-propionylamino)-propionic acid, methyl ester], the minimal effective concentration is 2.5 µM in experiment [1] and 1 µM in experiment [2]. The values for the IC50 in experiment [3] (setting [5]) and in experiment [3] (setting [6]) were 0.42 µM and 0.22 µM, respectively.

As for `CCCOC(=O)[C@H](Cc1c[nH]cn1)NC(=O)C(Cc1cccc2ccccc12)Cc1cccc2ccccc12` [Example 7, (S)-3-(1H-Imidazol-4-yl)-2-(3-naphthalen-1-yl-2-naphthalen-1-ylmethyl-propionylamino)-propionic acid, propyl ester], the minimal effective concentration in experiment [2] was 5 µM. The values for the IC50 in experiment [3] (setting [5]) and in experiment [3] (setting [6]) were 0.11 µM and 0.1 µM, respectively.

For `CC(C)OC(=O)[C@H](Cc1c[nH]cn1)NC(=O)C(Cc1cccc2ccccc12)Cc1cccc2ccccc12` [Example 8, (S)-3-(1H-Imidazol-4-yl)-2-(3-naphthalen-1-yl-2-naphthalen-1-ylmethyl-propionylamino)-propionic acid, isopropyl ester], the minimal effective concentration in experiment [1] and in experiment [2] was 5 µM in each case. In addition, the IC50 was determined as 0.18 µM in experiment [3] (setting [5]) and 0.16 µM in experiment [3] (setting [6]).

As for `O=C(N[C@@H](Cc1c[nH]cn1)C(=O)NCCOCc1ccccc1)C(Cc1cccc2ccccc12)Cc1cccc2ccccc12` [Example 23, (S)-N-[1-(2-Benzyloxy-ethylcarbamoyl)-2-(1H-imidazol-4-yl)-ethyl]-3-naphthalen-1-yl-2-naphthalen-1-ylmethyl-propionamide], the minimal effective concentration in experiment [2] came out at 5 µM. Also, the IC50 is 0.74 µM in experiment [3] (setting [5]) and 0.55 µM in experiment [3] (setting [6]).

In the case of `O=C(N[C@@H](Cc1c[nH]cn1)C(=O)NCCc1c[nH]cn1)C(Cc1cccc2ccccc12)Cc1cccc2ccccc12` [Example 27, (S)-N-{2-(1H-Imidazol-4-yl)-1-[2-(1H-imidazol-4-yl)-ethylcarbamoyl]-ethyl}-3-naphthalen-1-yl-2-naphthalen-1-ylmethyl-propionamide], the minimal effective concentration in experiment [2] came to 10 µM. The IC50 in experiment [3] (setting [5]) worked out at 4.8 µM; in experiment [3] (setting [6]) it was 3.9 µM.

Take `CNC(=O)[C@H](Cc1c[nH]cn1)NC(=O)C(Cc1cccc2ccccc12)Cc1cccc2ccccc12` [Example 33, (S)-N-[2-(1H-Imidazol-4-yl)-1-methylcarbamoyl-ethyl]-3-naphthalen-1-yl-2-naphthalen-1-ylmethyl-propionamide]: the minimal effective concentration in experiment [1] and in experiment [2] was 1 µM throughout. Besides, the IC50 in experiment [3] (setting [5]) worked out at 0.61 µM; in experiment [3] (setting [6]) it was 0.44 µM.

For `COC(=O)[C@H](Cc1c[nH]cn1)NC(=O)C(CC1CCCC2CCCCC21)CC1CCCC2CCCCC21` (stereo partly drawn) [Example 36, (S)-2-[3-(Decahydro-naphthalen-1-yl)-2-(decahydro-naphthalen-1-ylmethyl)-propionylamino]-3-(1H-imidazol-4-yl)-propionic acid, methyl ester], the minimal effective concentration in experiment [2] came to 25 µM. Also, the IC50 in experiment [3] (setting [5]) was 0.31 µM; in experiment [3] (setting [6]) it was 0.37 µM.

With `COC(=O)[C@H](Cc1c[nH]cn1)NC(=O)C(Cc1cccc2c1CCCC2)Cc1cccc2c1CCCC2` [Example 37, (S)-3-(1H-Imidazol-4-yl)-2-[3-(5,6,7,8-tetrahydro-naphthalen-1-yl)-2-(5,6,7,8-tetrahydro-naphthalen-1-ylmethyl)-propionylamino]-propionic acid, methyl ester], the minimal effective concentration in experiment [2] stood at 10 µM. For the same compound, the IC50 in experiment [3] (setting [5]) is 0.42 µM; in experiment [3] (setting [6]), 0.18 µM.

Regarding `COC(=O)[C@H](Cc1c[nH]cn1)N(C)C(=O)C(Cc1cccc2ccccc12)Cc1cccc2ccccc12` [Example 51, (S)-3-(1H-Imidazol-4-yl-2-[methyl-(3-naphthalen-1-yl-2-naphthalen-1-ylmethyl-propionyl)-amino]-propionic acid, methyl ester, trifluoroacetate], the minimal effective concentration in experiment [1] stood at 5 µM. Also, the IC50 stood at 2 µM in experiment [3] (setting [5]) and 2.2 µM in experiment [3] (setting [6]).

With `O=C(N[C@H](CO)Cc1c[nH]cn1)C(Cc1cccc2ccccc12)Cc1cccc2ccccc12` [Example 52, (S)-N-[1-Hydroxymethyl-2-(1H-imidazol-4-yl)-ethyl]-3-naphthalen-1-yl-2-naphthalen-1-ylmethyl-propionamide], the minimal effective concentration in experiment [1] is 25 µM. The IC50 in experiment [3] (setting [5]) was found to be 3 µM; in experiment [3] (setting [6]), 3.4 µM.

Turning to `O=C(N[C@@H](Cc1c[nH]cn1)C(=O)OCCc1ccccc1)C(Cc1cccc2ccccc12)Cc1cccc2ccccc12` [Example 53, (S)-3-(1H-Imidazol-4-yl)-2-(3-naphthalen-1-yl-2-naphthalen-1-ylmethyl-propionylamino)-propionic acid, phenethyl ester], the minimal effective concentration in experiment [1] amounted to 25 µM. Besides, the IC50 amounted to 0.07 µM in experiment [3] (setting [5]) and 0.06 µM in experiment [3] (setting [6]).

For the compound `COC(=O)[C@H](Cc1c[nH]cn1)NC(=O)C(Cc1ccccc1)Cc1cccc2ccccc12` (stereo partly drawn) [Example 65, (S)-2-(2-Benzyl-3-naphthalen-1-yl-propionylamino)-3-(1H-imidazol-4-yl)-propionic acid, methyl ester], the minimal effective concentration in experiment [1] came to 25 µM. For the same compound, the IC50 in experiment [3] (setting [5]) was determined as 1.6 µM; in experiment [3] (setting [6]), 2.9 µM.

As to `CSCC[C@H](NC(=O)c1ccc(NC[C@@H](N)CS)cc1-c1ccccc1)C(=O)O` [FTI-276], the “blocks the growth of a human lung carcinoma with a k-ras mutation” value in experiment [4] was “blocks the growth in nude mice of a human lung carcinoma with a k-ras mutation”.
